Results: US9399649B2, “Compounds for treating spinal muscular atrophy” (PTC Therapeutics Inc., priority 2012, dated 2016)

Experiments:
[1] = tested on: full length and Δ7 SMN2 mRNA; assay: Endogenous SMN2 mRNA end-point semi-quantitative RT-PCR splicing assay in animal tissues; format: in vivo; conditions: C/C-allele SMA mice, brain and muscle, oral BID for 10 days, FIG. 7
Method: The endpoint reverse transcription-PCR (RT-PCR) splicing assay is used to quantify the levels of the full length and Δ7 SMN2 mRNA in tissues from mice treated with test compound.
C/C-allele SMA mice are treated by oral gavage BID for 10 days with test compounds in 0.5% HPMC and 0.1% Tween-80. Tissue samples are collected and snap frozen for RNA purification.
Tissue samples (20-40 mg) are homogenized in QIAzol Lysis Reagent for 2 minutes at 20 Hz in the TissueLyser II using one stainless steel bead. After addition of chloroform, the homogenate is separated into aqueous and organic phases by centrifugation. RNA partitioned to the upper, aqueous phase is extracted and ethanol is added to provide appropriate binding conditions. The sample is then applied to the RNeasy spin column from the RNeasy Mini Kit, where total RNA binds to the membrane. The RNA is eluted in RNase-free water then stored at −20° C.
SMN2 spliced products are identified using the following amplification primers in Table 8. These primers hybridize to a nucleotide sequence in exon 6 (SMN Forward D, SEQ ID NO. 13) (nucleotide 22 to nucleotide 46) and exon 8 (SMN Reverse C, SEQ ID NO. 12), common to human SMN1 and SMN2 mRNA. […]

Smn protein [2] = assay: Smn protein assay in human motor neurons; format: cell-based; conditions: human motor neurons derived from SMA iPS cells, 72 hours, increasing concentrations, FIG. 10
Method: Smn immunofluorescent confocal microscopy is used to quantify the level of Smn protein in human motor neurons treated with test compounds.
Human motor neurons derived from SMA iPS cells (Ebert et al., Nature, 2009, […]; and, Rubin et al., BMC Biology, 2011, 9:42) are treated with test compound at various concentrations for 72 hours. The level of Smn protein in the cell nucleus is quantified using Smn immunostaining and confocal fluorescence microscopy essentially as described in Makhortova et al., Nature Chemical Biology, 2011, 7:544. The level of Smn protein in compound-treated samples is normalized to that in vehicle-treated samples and plotted as a function of the compound concentration.

Smn protein [3] = assay: Smn protein levels in tissues of Δ7 SMA mice of the survival study; format: in vivo; conditions: Compound 65 until PND 144, Compound 69 until PND 80 and PND 83, relative to vehicle treated and age-matched heterozygous mice, FIG. 16
Method: The tissue samples in Safe-Lock tubes are weighed and the volume of RIPA buffer containing the protease inhibitor cocktail is added based on the weight to volume ratios for each type of tissue: Brain (50 mgmL), Muscle (50 mgmL) and Spinal Cord (25 mgmL).
Tissues are homogenized using the TissueLyzer by bead milling. 5 mm stainless steel beads are added to the sample and shaken vigorously for 5 minutes at 30 Hz in the TissueLyzer. The samples are then centrifuged for 20 minutes at 14,000×g in a microcentrifuge and the homogenates transferred to the PCR plate. The homogenates are diluted in RIPA buffer to approximately 1 mgmL for HTRF and approximately 0.5 mgmL for total protein measurement using the BCA protein assay. […] Fluorescence for each well of the plate at 665 nm and 620 nm is measured on an EnVision multilabel plate reader (Perkin-Elmer). The total protein in the tissue homogenate is measured using the BCA assay according to the manufacturer's protocol.
The normalized fluorescence signal is calculated for each sample, Blank and vehicle control well by dividing the signal at 665 nm by the signal at 620 nm. Normalizing the signal accounts for possible fluorescence quenching due to the matrix effect of the tissue homogenate. […] The ΔF value for each tissue sample well is divided by the total protein quantity (determined using the BCA assay) for that tissue sample. […]

Compound	SMN2 FL mRNA in tissues (gel band) [1]	SMN2 Δ7 mRNA in tissues (gel band) [1]	Smn protein in the nucleus (Smn protein [2])	Smn protein expression in brain and muscle tissues (Smn protein [3])
Cc1cn2cc(-c3cc4ccc(N5CCN(C)CC5)cc4c(=O)o3)nc2c(C)n1 [Cpd 65, 3-(6,8-dimethylimidazo[1,2-a]pyrazin-2-yl)-7-(4-methylpiperazin-1-yl)-1H-isochromen-1-one]	progressively more SMN2 FL mRNA	less SMN2 Δ7 mRNA	progressively more Smn protein in the nucleus	increased Smn protein expression in brain and muscle tissues
Cc1cn2cc(-c3cc4ccc(N5CCN6CCC[C@H]6C5)cc4c(=O)o3)nc2c(C)n1 [Cpd 69, 3-(6,8-dimethylimidazo[1,2-a]pyrazin-2-yl)-7-[(8aS)-hexahydropyrrolo[1,2-a]pyrazin-2(1H)-yl]-1H-isochromen-1-one]			progressively more Smn protein in the nucleus	increased Smn protein expression in brain and muscle tissues
